The values that follow come from ChEMBL document CHEMBL2073796, “Multidrug resistance protein 2 (MRP2) transports HIV protease inhibitors, and transport can be enhanced by other drugs” (AIDS, 2002).

The series concerns the target ATP-binding cassette sub-family C member 2 (Homo sapiens, UniProt Q92887). The series can be described thus: TP_TRANSPORTER: transepithelial transport (basal to apical) in MRP2-expressing MDCKII cells. In kind it is functional, cell-based. The settings on record: dog, mdck-ii.

Molecules are shown by their SMILES.

ATP-binding cassette sub-family C member 2, sequence (Q92887 whole entry): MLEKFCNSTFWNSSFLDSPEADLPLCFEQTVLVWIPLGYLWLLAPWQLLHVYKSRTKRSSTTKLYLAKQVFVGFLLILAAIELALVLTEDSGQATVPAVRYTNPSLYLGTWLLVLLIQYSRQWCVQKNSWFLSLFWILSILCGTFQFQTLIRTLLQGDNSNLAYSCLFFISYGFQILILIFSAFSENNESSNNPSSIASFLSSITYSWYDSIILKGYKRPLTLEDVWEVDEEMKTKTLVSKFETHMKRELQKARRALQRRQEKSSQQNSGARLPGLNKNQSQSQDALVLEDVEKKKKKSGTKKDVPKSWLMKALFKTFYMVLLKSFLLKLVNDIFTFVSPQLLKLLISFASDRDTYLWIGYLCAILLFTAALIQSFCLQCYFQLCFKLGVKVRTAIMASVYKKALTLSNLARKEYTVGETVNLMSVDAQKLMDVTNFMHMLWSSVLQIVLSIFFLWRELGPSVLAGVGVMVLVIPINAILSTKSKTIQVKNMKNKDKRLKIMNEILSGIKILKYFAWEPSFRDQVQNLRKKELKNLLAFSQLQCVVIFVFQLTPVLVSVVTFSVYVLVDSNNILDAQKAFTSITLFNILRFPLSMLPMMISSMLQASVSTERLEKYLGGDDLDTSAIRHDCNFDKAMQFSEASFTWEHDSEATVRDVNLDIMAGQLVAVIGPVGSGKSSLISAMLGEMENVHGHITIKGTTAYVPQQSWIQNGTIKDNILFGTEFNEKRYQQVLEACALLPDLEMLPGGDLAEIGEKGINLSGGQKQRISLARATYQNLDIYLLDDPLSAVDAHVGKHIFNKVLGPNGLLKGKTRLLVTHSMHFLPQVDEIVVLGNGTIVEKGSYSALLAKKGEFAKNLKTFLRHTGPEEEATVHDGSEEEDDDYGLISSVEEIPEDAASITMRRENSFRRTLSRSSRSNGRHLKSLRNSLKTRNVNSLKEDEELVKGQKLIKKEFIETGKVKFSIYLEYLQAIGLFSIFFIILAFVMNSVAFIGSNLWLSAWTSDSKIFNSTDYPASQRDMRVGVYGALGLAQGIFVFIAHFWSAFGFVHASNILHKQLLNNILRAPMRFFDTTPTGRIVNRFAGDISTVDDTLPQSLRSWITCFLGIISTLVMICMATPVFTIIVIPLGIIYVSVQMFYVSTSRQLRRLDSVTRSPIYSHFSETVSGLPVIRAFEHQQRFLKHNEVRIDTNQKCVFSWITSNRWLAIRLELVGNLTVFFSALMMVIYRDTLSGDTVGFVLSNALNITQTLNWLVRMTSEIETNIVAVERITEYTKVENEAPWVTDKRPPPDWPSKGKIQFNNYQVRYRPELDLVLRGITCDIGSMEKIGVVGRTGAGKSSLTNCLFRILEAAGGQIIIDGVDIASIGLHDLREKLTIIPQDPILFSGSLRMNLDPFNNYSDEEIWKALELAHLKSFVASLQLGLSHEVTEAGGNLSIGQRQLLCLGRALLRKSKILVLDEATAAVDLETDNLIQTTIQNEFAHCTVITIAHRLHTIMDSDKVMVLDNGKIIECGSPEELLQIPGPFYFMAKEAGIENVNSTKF

Consider `CC(C)(C)NC(=O)[C@@H]1CN(Cc2cccnc2)CCN1C[C@@H](O)C[C@@H](Cc1ccccc1)C(=O)N[C@H]1c2ccccc2C[C@H]1O.O`, for which the Activity result was “substrate [+]”.
